Measurements from patent US20230241050A1, “APPLICATIONS OF HPK1 KINASE INHIBITOR IN PREVENTING AND/OR TREATING ANIMAL PATHOGEN INFECTION” (ZHUHAI YUFAN BIOTECHNOLOGIES CO., LTD, priority 2020, published 2023).

Key:
[1] = tested on: feline infectious peritonitis (FIP); assay: Clinical survival of cats with clinically confirmed FIP, treatment group vs control group (Example 2); type: in vivo, cat; conditions: 14 days; 2.0 mg/kg SC q24h D1-D14 plus supportive treatment, 7 cats vs 8 control cats; both pre-treated with GS-441524 for 3 days; Log Rank and Breslow tests, P < 0.05
From the text: A total of 15 cats with clinically confirmed FIP were enrolled, with hydrothorax/ascites, positive CT value by PCR, and no neurological symptoms. 8 cats were allocated into the control group, and 7 cats were allocated into the treatment group.
The groups were pre-treated with GS-441524 for 3 days. For the control group, necessary supportive treatment was given on D1-D14. For the treatment group, after 3 days of observation, necessary supportive treatment and the drug of the present invention (2.0 mg/kg, SC, q24 h) were given on D1-D14.
The occurrence of death or neurological symptoms was judged as clinical death, and the clinical survival curve was plotted after 14 days.

[2] = tested on: feline infectious peritonitis (FIP), feline coronavirus positive; assay: Treatment of a cat with recurrent feline infectious peritonitis (Example 1): daily clinical observation, body weight, chest X-ray; type: in vivo; conditions: for Food intake: D0: Decreased intake - 3; for Mental state: D0: Listless - 3; for Defecation condition / Respiratory state: D0: Normal - 5; for Body temperature Afternoon: D0 value 38.5; for body weight: 2.5 kg at enrollment (D0)
Protocol: Lele, a British shorthair cat, 8 months old, female, unneutered, weighing 2.5 kg. The cat had symptoms of elevated body temperature, mental depression, anorexia, and enlarged abdominal circumference in January, 2020. One week later, the cat was admitted. On January 18, the cat was diagnosed with feline infectious peritonitis (FIP) positive. After being treated with GS-441524 for 3 days, the cat was then given furosemide, Synulox®, prednisolone and itraconazole (P.O., q24h, 10 mg/kg) for 1 month. The drugs were discontinued after ascites regressed. […] The cat was enrolled on April 8, and was treated with the drug of the present invention at 2.0 mg/kg (SC, q24h) on days 1-14 (D1-14). Proper supportive treatments were given at the same time, including adjuvant treatment such as Moringa (a hepatoprotective drug), Lysinphirst (lysine) and Doctor Dolittle® (lactoferrin).
The pharmaceutically active compound described above is a pure powder have the following structure. The compound was added to a 0.9% normal saline (50 mL of endotoxin-free water and 0.45 g of NaCl), and the resulting mixture was uniformly mixed and filtered through a filter membrane to give a clarified solution. The diluted compound was stored in a plastic-sealed sterile vial, stored in a refrigerator at 4° C., gently brought to room temperature before injection, and administered using a disposable syringe. The injection ranged across the back, starting from 2 cm posterior to the scapula to the middle of the lumbar spine, half of the distance of the adjacent chest to flank.
The treatment was given by injection in the morning every day, body temperature, appetite, mental state and respiratory state were measured and evaluated at 15:00 pm, and urination and defecation conditions were recorded.
The body weight increased by 9% during and after the treatment.

CN1CCC(c2ncc(-c3cnc(N)c(OCc4cccc(C#CC(C)(C)O)c4)c3)s2)CC1 [the drug of the present invention, 4-(3-{2-amino-5-[2-(1-methyl-piperidin-4-yl)thiazol-5-yl]pyridin-3-yloxymethyl}phenyl)-2-methyl-but-3-yn-2-ol]
clinical survival curve (death or neurological symptoms = clinical death), treatment group vs control group [1]: significant difference | Food intake ([2]; D1 (4-9), 2.0 mg/kg SC q24h): Decreased intake - 3 | Mental state ([2]; D1 (4-9), 2.0 mg/kg SC q24h): Slightly improved - 3.5 | Defecation condition ([2]; D1 (4-9), 2.0 mg/kg SC q24h): Normal | Respiratory state ([2]; D1 (4-9), 2.0 mg/kg SC q24h): Normal | Body temperature Afternoon ([2]; D1 (4-9), 2.0 mg/kg SC q24h): 38.6 °C | Food intake ([2]; D2 (4-10), 2.0 mg/kg SC q24h): Improved - 4 | Mental state ([2]; D2 (4-10), 2.0 mg/kg SC q24h): Improved - 4 | Defecation condition ([2]; D2 (4-10), 2.0 mg/kg SC q24h): Normal | Respiratory state ([2]; D2 (4-10), 2.0 mg/kg SC q24h): Normal | Body temperature Afternoon ([2]; D2 (4-10), 2.0 mg/kg SC q24h): 38.1 °C | Food intake ([2]; D3 (4-11), 2.0 mg/kg SC q24h): Good - 5 | Mental state ([2]; D3 (4-11), 2.0 mg/kg SC q24h): Good - 5 | Defecation condition ([2]; D3 (4-11), 2.0 mg/kg SC q24h): Normal | Respiratory state ([2]; D3 (4-11), 2.0 mg/kg SC q24h): Normal | Body temperature Afternoon ([2]; D3 (4-11), 2.0 mg/kg SC q24h): 38 °C | Food intake ([2]; D4 (4-12), 2.0 mg/kg SC q24h): Good | Mental state ([2]; D4 (4-12), 2.0 mg/kg SC q24h): Good | Defecation condition ([2]; D4 (4-12), 2.0 mg/kg SC q24h): Normal | Respiratory state ([2]; D4 (4-12), 2.0 mg/kg SC q24h): Normal | Body temperature Afternoon ([2]; D4 (4-12), 2.0 mg/kg SC q24h): 38.3 °C | Food intake ([2]; D5 (4-13), 2.0 mg/kg SC q24h): Good | Mental state ([2]; D5 (4-13), 2.0 mg/kg SC q24h): Good | Defecation condition ([2]; D5 (4-13), 2.0 mg/kg SC q24h): Normal | Respiratory state ([2]; D5 (4-13), 2.0 mg/kg SC q24h): Normal | Body temperature Afternoon ([2]; D5 (4-13), 2.0 mg/kg SC q24h): 38.3 °C | Food intake ([2]; D6 (4-14), 2.0 mg/kg SC q24h): Good | Mental state ([2]; D6 (4-14), 2.0 mg/kg SC q24h): Good | Defecation condition ([2]; D6 (4-14), 2.0 mg/kg SC q24h): Normal | Respiratory state ([2]; D6 (4-14), 2.0 mg/kg SC q24h): Normal | Body temperature Afternoon ([2]; D6 (4-14), 2.0 mg/kg SC q24h): 38.3 °C | body weight ([2]; D7 (4-15), 2.0 mg/kg SC q24h): 2.75 kg body weight | Food intake ([2]; D7 (4-15), 2.0 mg/kg SC q24h): Good | Mental state ([2]; D7 (4-15), 2.0 mg/kg SC q24h): Good | Defecation condition ([2]; D7 (4-15), 2.0 mg/kg SC q24h): Normal | Respiratory state ([2]; D7 (4-15), 2.0 mg/kg SC q24h): Normal | Body temperature Afternoon ([2]; D7 (4-15), 2.0 mg/kg SC q24h): 38.1 °C | Food intake ([2]; D8 (4-16), 2.0 mg/kg SC q24h): Good | Mental state ([2]; D8 (4-16), 2.0 mg/kg SC q24h): Good | Defecation condition ([2]; D8 (4-16), 2.0 mg/kg SC q24h): Normal | Respiratory state ([2]; D8 (4-16), 2.0 mg/kg SC q24h): Normal | Body temperature Afternoon ([2]; D8 (4-16), 2.0 mg/kg SC q24h): 38 °C | Food intake ([2]; D9 (4-17), 2.0 mg/kg SC q24h): Good | Mental state ([2]; D9 (4-17), 2.0 mg/kg SC q24h): Good | Defecation condition ([2]; D9 (4-17), 2.0 mg/kg SC q24h): Normal | Respiratory state ([2]; D9 (4-17), 2.0 mg/kg SC q24h): Normal | Body temperature Afternoon ([2]; D9 (4-17), 2.0 mg/kg SC q24h): 38.2 °C | Food intake ([2]; D10 (4-18), 2.0 mg/kg SC q24h): Good | Mental state ([2]; D10 (4-18), 2.0 mg/kg SC q24h): Good | Defecation condition ([2]; D10 (4-18), 2.0 mg/kg SC q24h): Normal | Respiratory state ([2]; D10 (4-18), 2.0 mg/kg SC q24h): Normal | Body temperature Afternoon ([2]; D10 (4-18), 2.0 mg/kg SC q24h): 38.3 °C | Food intake ([2]; D11 (4-19), 2.0 mg/kg SC q24h): Good | Mental state ([2]; D11 (4-19), 2.0 mg/kg SC q24h): Good | Defecation condition ([2]; D11 (4-19), 2.0 mg/kg SC q24h): Normal | Respiratory state ([2]; D11 (4-19), 2.0 mg/kg SC q24h): Normal | Body temperature Afternoon ([2]; D11 (4-19), 2.0 mg/kg SC q24h): 38.4 °C | Food intake ([2]; D12 (4-20), 2.0 mg/kg SC q24h): Good | Mental state ([2]; D12 (4-20), 2.0 mg/kg SC q24h): Good | Defecation condition ([2]; D12 (4-20), 2.0 mg/kg SC q24h): Normal | Respiratory state ([2]; D12 (4-20), 2.0 mg/kg SC q24h): Normal | Body temperature Afternoon ([2]; D12 (4-20), 2.0 mg/kg SC q24h): 38.5 °C | Body temperature Morning ([2]; D13 (4-21), 2.0 mg/kg SC q24h): 38.9 °C | Food intake ([2]; D13 (4-21), 2.0 mg/kg SC q24h): Good | Mental state ([2]; D13 (4-21), 2.0 mg/kg SC q24h): Good | Defecation condition ([2]; D13 (4-21), 2.0 mg/kg SC q24h): Normal | Respiratory state ([2]; D13 (4-21), 2.0 mg/kg SC q24h): Normal | Body temperature Afternoon ([2]; D13 (4-21), 2.0 mg/kg SC q24h): 38.5 °C | Body temperature Morning ([2]; D14 (4-22), 2.0 mg/kg SC q24h): 38.4 °C | body weight ([2]; D14 (4-22), 2.0 mg/kg SC q24h): 2.75 kg body weight | Food intake ([2]; D14 (4-22), 2.0 mg/kg SC q24h): Good | Mental state ([2]; D14 (4-22), 2.0 mg/kg SC q24h): Good | Defecation condition ([2]; D14 (4-22), 2.0 mg/kg SC q24h): Normal | Respiratory state ([2]; D14 (4-22), 2.0 mg/kg SC q24h): Normal | Body temperature Afternoon ([2]; D14 (4-22), 2.0 mg/kg SC q24h): 38.4 °C | clinical response (appetite, mental state, weight) ([2]; after 2 weeks of treatment, 2.0 mg/kg SC q24h): remarkable clinical response with improved appetite and mental state, and weight gain | body weight increase ([2]; during and after the treatment (D1-14, 2.0 mg/kg SC q24h)): 9% | hydrothorax (chest X-ray) ([2]; since about 7 days after the treatment, 2.0 mg/kg SC q24h): completely regressed | body temperature maintained in the normal range ([2]; throughout the treatment (D1-14, 2.0 mg/kg SC q24h), no fever at enrollment): 38-38.5 °C
